According to PubChem BioAssay (NCI):
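Exposure lasted 48 hours, with cells grown in 96-well plates and compounds tested at five concentrations. At the GI50, growth is halved. At the TGI there is no net growth.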

Experiments:
Assay in all cases: NCI-60 cell line screen, 48 h
U251 CNS = test system: U251 CNS
SF-268 CNS = test system: SF-268 CNS
NCI-H522 lung = test system: NCI-H522 lung
CAKI-1 renal = test system: CAKI-1 renal
SN12C renal = test system: SN12C renal
HT29 colon = test system: HT29 colon
COLO 205 colon = test system: COLO 205 colon
SR leukemia = test system: SR leukemia
HOP-92 NSCLC = test system: HOP-92 NSCLC
CCRF-CEM leukemia = test system: CCRF-CEM leukemia
SK-OV-3 ovarian = test system: SK-OV-3 ovarian
IGROV1 ovarian = test system: IGROV1 ovarian
OVCAR-4 ovarian = test system: OVCAR-4 ovarian
SNB-19 CNS = test system: SNB-19 CNS
SK-MEL-5 melanoma = test system: SK-MEL-5 melanoma
PC-3 prostate = test system: PC-3 prostate
HCT-15 colon = test system: HCT-15 colon
M14 melanoma = test system: M14 melanoma
LOX IMVI melanoma = test system: LOX IMVI melanoma
ACHN renal = test system: ACHN renal
SF-539 CNS = test system: SF-539 CNS
OVCAR-5 ovarian = test system: OVCAR-5 ovarian
MOLT-4 leukemia = test system: MOLT-4 leukemia
NCI-H226 lung = test system: NCI-H226 lung
A549 NSCLC = test system: A549 NSCLC
OVCAR-3 ovarian = test system: OVCAR-3 ovarian
UACC-62 melanoma = test system: UACC-62 melanoma
T-47D breast = test system: T-47D breast
OVCAR-8 ovarian = test system: OVCAR-8 ovarian
UACC-257 melanoma = test system: UACC-257 melanoma
SF-295 CNS = test system: SF-295 CNS
KM12 colon = test system: KM12 colon
RPMI-8226 leukemia = test system: RPMI-8226 leukemia
NCI-H460 lung = test system: NCI-H460 lung
MALME-3M melanoma = test system: MALME-3M melanoma
HCT-116 colon = test system: HCT-116 colon
SK-MEL-2 melanoma = test system: SK-MEL-2 melanoma
A498 renal = test system: A498 renal
HS 578T breast = test system: HS 578T breast
SK-MEL-28 melanoma = test system: SK-MEL-28 melanoma
HOP-62 NSCLC = test system: HOP-62 NSCLC
TK-10 renal = test system: TK-10 renal
MDA-MB-231 breast = test system: MDA-MB-231 breast
MCF7 breast = test system: MCF7 breast
NCI-H23 lung = test system: NCI-H23 lung
EKVX NSCLC = test system: EKVX NSCLC
MDA-MB-468 breast = test system: MDA-MB-468 breast
HL-60(TB) leukemia = test system: HL-60(TB) leukemia
RXF 393 renal = test system: RXF 393 renal
786-0 renal = test system: 786-0 renal
MDA-MB-435 = test system: MDA-MB-435
HCC-2998 colon = test system: HCC-2998 colon
UO-31 renal = test system: UO-31 renal
SW-620 colon = test system: SW-620 colon
BT-549 breast = test system: BT-549 breast
DU-145 prostate = test system: DU-145 prostate
K-562 leukemia = test system: K-562 leukemia

## O=C1CCC(N2C(=O)c3cccc(NCCOCCOCCOCCC(=O)NCCCC(=O)NC(c4ccc5c(c4)OCO5)c4cc(Cl)c5cccnc5c4O)c3C2=O)C(=O)C1 (stereo not drawn)
U251 CNS
  GI50: 6.8 µM
  TGI: > 99 µM
SF-268 CNS
  GI50: 4.38 µM
  TGI: > 99 µM
NCI-H522 lung
  GI50: 4.39 µM
  TGI: 41.5 µM
CAKI-1 renal
  GI50: 28.3 µM
  TGI: > 99 µM
SN12C renal
  GI50: 5.42 µM
  TGI: > 99 µM
HT29 colon
  GI50: 26.4 µM
  TGI: > 99 µM
COLO 205 colon
  GI50: 5.04 µM
  TGI: > 99 µM
SR leukemia
  GI50: 5.26 µM
  TGI: > 99 µM
HOP-92 NSCLC
  GI50: 4.29 µM
  TGI: 52.3 µM
CCRF-CEM leukemia
  GI50: 3.34 µM
  TGI: > 99 µM
SK-OV-3 ovarian
  GI50: 14.6 µM
  TGI: > 99 µM
IGROV1 ovarian
  GI50: 3.77 µM
  TGI: > 99 µM
OVCAR-4 ovarian
  GI50: 14.4 µM
  TGI: 84.3 µM
SNB-19 CNS
  GI50: 6.32 µM
  TGI: > 99 µM
SK-MEL-5 melanoma
  GI50: 14 µM
  TGI: 43.8 µM
PC-3 prostate
  GI50: 7.83 µM
  TGI: > 99 µM
HCT-15 colon
  GI50: 37.4 µM
  TGI: > 99 µM
M14 melanoma
  GI50: 14 µM
  TGI: > 99 µM
LOX IMVI melanoma
  GI50: 4.29 µM
  TGI: 22.2 µM
ACHN renal
  GI50: 52.5 µM
  TGI: > 99 µM
SF-539 CNS
  GI50: 4.21 µM
  TGI: 26.6 µM
OVCAR-5 ovarian
  GI50: 19.5 µM
  TGI: > 99 µM
MOLT-4 leukemia
  GI50: 4.8 µM
  TGI: > 99 µM
NCI-H226 lung
  GI50: 14.5 µM
  TGI: 72.2 µM
A549 NSCLC
  GI50: 41.5 µM
  TGI: > 99 µM
OVCAR-3 ovarian
  GI50: 3.33 µM
  TGI: > 99 µM
UACC-62 melanoma
  GI50: 3.76 µM
  TGI: 22.7 µM
T-47D breast
  GI50: 5.06 µM
  TGI: > 99 µM
OVCAR-8 ovarian
  GI50: 11.9 µM
  TGI: 75.1 µM
UACC-257 melanoma
  GI50: 8.95 µM
  TGI: 85.7 µM
SF-295 CNS
  GI50: 25.4 µM
  TGI: > 99 µM
KM12 colon
  GI50: 4.5 µM
  TGI: > 99 µM
RPMI-8226 leukemia
  GI50: 7.12 µM
  TGI: > 99 µM
NCI-H460 lung
  GI50: 4.81 µM
  TGI: 42.9 µM
MALME-3M melanoma
  GI50: 11.8 µM
  TGI: 90.8 µM
HCT-116 colon
  GI50: 22.2 µM
  TGI: > 99 µM
SK-MEL-2 melanoma
  GI50: 4.89 µM
  TGI: 34.6 µM
A498 renal
  GI50: > 99 µM
  TGI: > 99 µM
HS 578T breast
  GI50: 8.43 µM
  TGI: > 99 µM
SK-MEL-28 melanoma
  GI50: 5.95 µM
  TGI: 61 µM
HOP-62 NSCLC
  GI50: 7.19 µM
  TGI: > 99 µM
TK-10 renal
  GI50: 62.1 µM
  TGI: > 99 µM
MDA-MB-231 breast
  GI50: 4.32 µM
  TGI: 29.5 µM
MCF7 breast
  GI50: 3.69 µM
  TGI: > 99 µM
NCI-H23 lung
  GI50: 12.7 µM
  TGI: > 99 µM
EKVX NSCLC
  GI50: 17.2 µM
  TGI: > 99 µM
MDA-MB-468 breast
  GI50: 2.56 µM
  TGI: 7.77 µM
HL-60(TB) leukemia
  GI50: 2.41 µM
  TGI: 23.1 µM
RXF 393 renal
  GI50: 8.56 µM
  TGI: 33.3 µM
786-0 renal
  GI50: 29.6 µM
  TGI: > 99 µM
MDA-MB-435
  GI50: 5.8 µM
  TGI: > 99 µM
HCC-2998 colon
  GI50: 6.03 µM
  TGI: 30.8 µM
UO-31 renal
  GI50: 33.6 µM
  TGI: > 99 µM
SW-620 colon
  GI50: 12.6 µM
  TGI: > 99 µM
BT-549 breast
  GI50: 8.58 µM
  TGI: 42.3 µM
DU-145 prostate
  GI50: 37.5 µM
  TGI: > 99 µM
K-562 leukemia
  GI50: 5.3 µM
  TGI: > 99 µM

## CC(C)(C)c1cc(-c2cc(-c3ccccc3)[nH]c(=O)c2C#N)cc(C(C)(C)C)c1
U251 CNS
  GI50: 3.05 µM
  TGI: 10.8 µM
SF-268 CNS
  GI50: 7.73 µM
  TGI: 46.3 µM
NCI-H522 lung
  GI50: 15.1 µM
  TGI: 73.3 µM
CAKI-1 renal
  GI50: 2.81 µM
  TGI: 11 µM
SN12C renal
  GI50: 4.09 µM
  TGI: 25.7 µM
HT29 colon
  GI50: 23.4 µM
  TGI: 62 µM
COLO 205 colon
  GI50: 37.6 µM
  TGI: > 100 µM
SR leukemia
  GI50: 19.4 µM
  TGI: > 100 µM
HOP-92 NSCLC
  GI50: 2.83 µM
  TGI: 8.64 µM
CCRF-CEM leukemia
  GI50: 36.8 µM
  TGI: > 100 µM
SK-OV-3 ovarian
  GI50: 5.8 µM
  TGI: 22 µM
IGROV1 ovarian
  GI50: 3.9 µM
  TGI: 17.6 µM
OVCAR-4 ovarian
  GI50: 2.85 µM
  TGI: 10.1 µM
SNB-19 CNS
  GI50: 3.03 µM
  TGI: 10.8 µM
SK-MEL-5 melanoma
  GI50: 14.3 µM
  TGI: 34.1 µM
PC-3 prostate
  GI50: 11.5 µM
  TGI: 36.3 µM
HCT-15 colon
  GI50: 17.8 µM
  TGI: > 100 µM
M14 melanoma
  GI50: 12 µM
  TGI: 38.3 µM
LOX IMVI melanoma
  GI50: 2.02 µM
  TGI: 4.53 µM
ACHN renal
  GI50: 2.7 µM
  TGI: 7.91 µM
SF-539 CNS
  GI50: 5.11 µM
  TGI: 17.7 µM
OVCAR-5 ovarian
  GI50: 15.2 µM
  TGI: 93.2 µM
MOLT-4 leukemia
  GI50: 14.2 µM
  TGI: > 100 µM
NCI-H226 lung
  GI50: 2.69 µM
  TGI: 10.3 µM
A549 NSCLC
  GI50: 3.71 µM
  TGI: 15.9 µM
OVCAR-3 ovarian
  GI50: 12.4 µM
  TGI: 41.5 µM
UACC-62 melanoma
  GI50: 7.98 µM
  TGI: 22.7 µM
T-47D breast
  GI50: 6.71 µM
  TGI: 45.8 µM
OVCAR-8 ovarian
  GI50: 3.5 µM
  TGI: 13.9 µM
UACC-257 melanoma
  GI50: 13.5 µM
  TGI: 36.2 µM
SF-295 CNS
  GI50: 2.05 µM
  TGI: 4.81 µM
KM12 colon
  GI50: > 100 µM
  TGI: > 100 µM
RPMI-8226 leukemia
  GI50: 37.7 µM
  TGI: > 100 µM
NCI-H460 lung
  GI50: 3.56 µM
  TGI: 13.1 µM
MALME-3M melanoma
  GI50: 4.53 µM
  TGI: 17 µM
HCT-116 colon
  GI50: 21.4 µM
  TGI: 61.4 µM
SK-MEL-2 melanoma
  GI50: 12 µM
  TGI: 26.5 µM
A498 renal
  GI50: 10.1 µM
  TGI: 26.1 µM
HS 578T breast
  GI50: 2.63 µM
  TGI: 8.85 µM
SK-MEL-28 melanoma
  GI50: 12.8 µM
  TGI: 30.5 µM
HOP-62 NSCLC
  GI50: 3.25 µM
  TGI: 11.9 µM
TK-10 renal
  GI50: 4.97 µM
  TGI: 19.9 µM
MDA-MB-231 breast
  GI50: 2.72 µM
  TGI: 8.82 µM
MCF7 breast
  GI50: 12.9 µM
  TGI: 39.1 µM
NCI-H23 lung
  GI50: 6.22 µM
  TGI: 22.4 µM
EKVX NSCLC
  GI50: 6.58 µM
  TGI: 22.6 µM
MDA-MB-468 breast
  GI50: 10.3 µM
  TGI: 29.7 µM
HL-60(TB) leukemia
  GI50: 49.2 µM
  TGI: > 100 µM
RXF 393 renal
  GI50: 2.4 µM
  TGI: 7.03 µM
786-0 renal
  GI50: 5.14 µM
  TGI: 18.2 µM
MDA-MB-435
  GI50: 14.6 µM
  TGI: 43.1 µM
HCC-2998 colon
  GI50: 38.8 µM
  TGI: > 100 µM
UO-31 renal
  GI50: 4.11 µM
  TGI: 19.1 µM
SW-620 colon
  GI50: 18.6 µM
  TGI: > 100 µM
BT-549 breast
  GI50: 4.12 µM
  TGI: 19 µM
DU-145 prostate
  GI50: 11.3 µM
  TGI: 31.6 µM
K-562 leukemia
  GI50: 17.8 µM
  TGI: > 100 µM
